Experimental data: patent US8680070B2, “Medical implants containing adenosine receptor agonists and methods for inhibitiing medical implant loosening” (New York University, priority 2007, dated 2014)

Tests used:
TRAF6 protein = test: Western blotting of TRAF6 protein in RAW264.7 cells; format: cell-based, murine; details: 1 μg/ml for 4 days, then RANKL 30 ng/ml, β-actin as comparison
Method: Western blotting. Osteoclast precursors were preincubated with or without CGS21680 (1 μg/ml) or ZM241385 (1 μg/ml) for 4 days and then stimulated with RANKL (30 ng/ml) for the indicated period. For isolation of total proteins, cells were washed twice with PBS and lysed in RIPA buffer. Proteins were estimated and boiled with sample buffer for 5 min and were subjected to electrophoresis on 10% SDS-PAGE. Proteins were transferred onto a nitrocellulose membrane. Membranes were blocked for 2 hours in blocking solution (5% nonfat dry milk in TBS containing 0.1% Tween 20) and exposed to primary Abs overnight at 4° C. After washing, the membranes were incubated for 1 hour at room temperature with secondary Ab, and the proteins were detected using ECL reagents according to the manufacturer's instructions. To reprobe the membranes with other Abs, the membranes were stripped with 100 mM 2-ME, 2% SDS, and 62.5 mM Tris-HCl (pH 6.9) for 20 min at 50° C., followed by immunoblotting as described above.

RAW264.7 cells = test: Osteoclastogenesis: TRAP-positive multinucleated cells from RANKL-stimulated RAW264.7 cells; format: cell-based, murine; details: RANKL 30 ng/ml, four days of culture, vs untreated cells, listed as Adenosine A2A receptor antagonist
Method: Osteoclast formation was evaluated by quantification of TRAP-positive MNCs as described previously. TRAP is preferentially expressed at high levels in osteoclasts and is considered, especially in the mouse, to be an osteoclast marker. After incubation, cells on wells were washed in PBS, fixed in 4% paraformaldehyde for 10 min, and stained for acid phosphatase in the presence of 0.3 M sodium tartrate (Sigma-Aldrich). The substrate used was napthol AS-BI phosphate (Sigma-Aldrich). Only those cells that were strongly TRAP-positive (dark red) and have more than 3 nuclei were counted by light microscopy. To evaluate the size of the Osteoclast over time, we counted the number of nuclei per OCL in 50 OCLs for each of the three wells(n=150). The mean number of nuclei per OCL (MNN) and SE were calculated for each time-point, and ANOVA analysis was performed to determine statistically significant differences. RAW264.7 is a macrophage cell line having the capacity to form osteoclast-like cells. Because the RAW264.7 cells provide an excellent in vitro model for dissecting the cellular and molecular regulation of osteoclast differentiation and activation, we studied the effect of adenosine A2A receptors on the osteoclasts generated from the RAW264.7 cells. Cell Culture and Osteoclastogenesis. […]

| Structure (SMILES) | TRAF6 levels (TRAF6 protein) | osteoclast formation (number of multinucleated TRAP+ osteoclasts) (RAW264.7 cells) |
| --- | --- | --- |
| CCNC(=O)[C@H]1O[C@@H](n2cnc3c(N)nc(NCCc4ccc(CCC(=O)O)cc4)nc32)[C@H](O)[C@@H]1O [A2A receptor agonist, CGS 21680] | diminish | – |
| Nc1nc(NCCc2ccc(O)cc2)nc2nc(-c3ccco3)nn12 [adenosine A2A receptor antagonist, ZM241385] | – | increased number |
